Measurements: ChEMBL document CHEMBL5512682, “Discovery of BMS-986308: A Renal Outer Medullary Potassium Channel Inhibitor for the Treatment of Heart Failure” (J Med Chem, 2024)

Assays:
[1] = Metabolic stability in rat liver microsomes assessed as parent compound remaining at 10 uM measured after 10 mins in presence of NADPH and GSH by UPLC-MS/MS analysis; format: ADME, Microsome; details: read-out: Stability
hERG (KCNH2) [2] = biological target: T1, hERG (KCNH2) (Homo sapiens, UniProt Q12809); test: Inhibition of human ERG expressed in HEK293 cells at 10 uM incubated for 2 to 5 mins by Manual patch clamp assay relative to control; format: toxicity, cell-based; details: HEK293 cells expressing hERG, time 2-5 min
[3] = Metabolic stability in human liver microsomes assessed as parent compound remaining at 10 uM measured after 10 mins in presence of NADPH and GSH by UPLC-MS/MS analysis; format: ADME, Microsome; details: read-out: Stability
[4] = biological target: T2, ATP-sensitive inward rectifier potassium channel 1 (Homo sapiens, UniProt P48048)
T2 sequence (P48048 whole entry): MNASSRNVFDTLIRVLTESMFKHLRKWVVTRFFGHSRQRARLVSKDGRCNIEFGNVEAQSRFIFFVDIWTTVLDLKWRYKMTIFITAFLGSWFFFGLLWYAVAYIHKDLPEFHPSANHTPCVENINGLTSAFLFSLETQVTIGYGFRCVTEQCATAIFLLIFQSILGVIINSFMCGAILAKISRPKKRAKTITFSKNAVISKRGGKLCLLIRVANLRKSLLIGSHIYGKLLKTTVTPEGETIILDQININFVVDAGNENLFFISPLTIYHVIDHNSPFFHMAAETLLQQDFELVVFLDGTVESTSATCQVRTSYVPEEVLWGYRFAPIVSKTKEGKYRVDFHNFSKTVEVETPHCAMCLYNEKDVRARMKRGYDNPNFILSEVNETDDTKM
Description: Inhibition of human ROMK expressed in T-REX-CHO cells incubated for 30 mins by thallium flux assay

[5] = biological target: T2, ATP-sensitive inward rectifier potassium channel 1; remark: listed apart in the source
Description: Inhibition of human ROMK expressed in T-REX-CHO cells incubated for 3 to 8 mins by whole cell manual patch clamp assay

hERG (KCNH2) [6] = biological target: T1, hERG (KCNH2); test: Inhibition of human ERG expressed in HEK293 cells at 1 uM incubated for 2 to 5 mins by Manual patch clamp assay relative to control; format: toxicity, cell-based; details: HEK293 cells expressing hERG, time 2-5 min
[7] = Glutathione reactivity in human liver microsomes assessed as GSH-adduct formation at 10 uM incubated for 60 mins in presence of NADPH and GSH by HPLC-MS analysis; format: ADME, Microsome; details: 1 h
hERG (KCNH2) [8] = biological target: T1, hERG (KCNH2); test: Inhibition of human ERG expressed in HEK293 cells at 3 uM incubated for 2 to 5 mins by Manual patch clamp assay relative to control; format: toxicity, cell-based; details: HEK293 cells expressing hERG, time 2-5 min
[9] = biological target: Voltage-gated inwardly rectifying potassium channel KCNH2 (Homo sapiens, UniProt Q12809); test: Inhibition of human ERG expressed in HEK293 cells incubated for 2 to 5 mins by Manual patch clamp assay; format: toxicity, cell-based
Homo sapiens [10] = species: Homo sapiens; test: Selectivity ratio of IC50 for inhibition of ERG expressed in HEK293 cells to IC50 for inhibition of human ROMK expressed in T-REX-CHO cells incubated for 3 to 8 mins by whole cell manual patch clamp assay; format: cell-based
Homo sapiens [11] = species: Homo sapiens; test: Selectivity ratio of IC50 for inhibition of ERG expressed in HEK293 cells to IC50 for inhibition of human ROMK expressed in T-REX-CHO cells incubated for 30 mins by thallium flux assay; format: cell-based

T1 sequence (Q12809 whole entry): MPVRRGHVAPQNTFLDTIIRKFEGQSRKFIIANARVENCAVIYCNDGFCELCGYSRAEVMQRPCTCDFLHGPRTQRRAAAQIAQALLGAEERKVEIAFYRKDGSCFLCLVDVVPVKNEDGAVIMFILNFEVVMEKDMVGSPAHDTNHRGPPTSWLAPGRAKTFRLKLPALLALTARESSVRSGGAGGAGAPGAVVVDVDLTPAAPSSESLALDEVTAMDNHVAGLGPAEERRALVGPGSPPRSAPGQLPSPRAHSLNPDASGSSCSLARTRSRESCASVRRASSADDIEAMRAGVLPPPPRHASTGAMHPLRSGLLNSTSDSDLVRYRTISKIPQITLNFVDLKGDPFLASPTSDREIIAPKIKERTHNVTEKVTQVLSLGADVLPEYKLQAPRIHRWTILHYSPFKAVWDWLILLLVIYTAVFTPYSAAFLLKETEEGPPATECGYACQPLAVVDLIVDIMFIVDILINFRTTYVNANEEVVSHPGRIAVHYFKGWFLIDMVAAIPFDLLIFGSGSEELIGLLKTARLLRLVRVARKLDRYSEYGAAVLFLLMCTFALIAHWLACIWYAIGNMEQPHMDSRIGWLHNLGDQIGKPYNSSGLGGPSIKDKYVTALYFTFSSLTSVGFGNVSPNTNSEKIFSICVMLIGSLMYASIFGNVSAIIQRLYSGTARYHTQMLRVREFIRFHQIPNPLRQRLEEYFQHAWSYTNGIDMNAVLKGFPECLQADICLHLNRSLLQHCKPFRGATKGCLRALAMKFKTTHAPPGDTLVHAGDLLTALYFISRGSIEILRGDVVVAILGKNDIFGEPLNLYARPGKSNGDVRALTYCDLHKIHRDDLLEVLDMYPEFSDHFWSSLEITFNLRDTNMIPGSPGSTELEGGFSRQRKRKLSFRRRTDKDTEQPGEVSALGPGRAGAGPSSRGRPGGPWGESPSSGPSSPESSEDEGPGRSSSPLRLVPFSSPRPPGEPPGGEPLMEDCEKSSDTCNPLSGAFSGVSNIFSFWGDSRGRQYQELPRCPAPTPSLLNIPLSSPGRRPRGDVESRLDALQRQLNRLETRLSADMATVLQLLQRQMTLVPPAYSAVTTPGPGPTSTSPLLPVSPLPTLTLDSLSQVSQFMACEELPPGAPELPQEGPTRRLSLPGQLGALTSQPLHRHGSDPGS
Chain of Voltage-gated inwardly rectifying potassium channel KCNH2 (Q12809 whole entry): as above

Cc1cc(-n2ccc(CNC[C@H](O)c3ccc4c(c3C)COC4=O)n2)ncc1C#N
remaining at 10 min, 10 µM [1]: 1% | inhibition at 10 µM (hERG (KCNH2) [2]): 59% | remaining at 10 min, 10 µM [3]: 12% | IC50 [4]: 430 nM

Cc1cc(-n2ncc(CNC[C@H](O)c3ccc4c(c3C)COC4=O)n2)ncc1C#N
remaining at 10 min, 10 µM [1]: 94% | inhibition at 10 µM (hERG (KCNH2) [2]): 87% | remaining at 10 min, 10 µM [3]: 92% | IC50 [4]: 52 nM | IC50 [5]: 8.1 nM

Cc1cc(-n2cc(CN3CCCC(c4ccc5c(c4C)COC5=O)C3)cn2)ncc1C#N (stereo not given)
remaining at 10 min, 10 µM [1]: 29% | remaining at 10 min, 10 µM [3]: 59% | inhibition at 1 µM (hERG (KCNH2) [6]): 75%

Cc1cc(-n2cc(CNC[C@H](O)c3ccc4c(c3C)COC4=O)c(C(F)F)n2)ncc1C#N
remaining at 10 min, 10 µM [1]: 1% | inhibition at 10 µM (hERG (KCNH2) [2]): 77% | remaining at 10 min, 10 µM [3]: 18%

Cc1cc(-n2cc(CN3C[C@@H](c4ccc5c(c4C)COC5=O)OC(C)(C)C3)cn2)ncc1C#N
remaining at 10 min, 10 µM [1]: 56% | remaining at 10 min, 10 µM [3]: 44% | inhibition at 1 µM (hERG (KCNH2) [6]): 13%

Cc1cc(-n2cc(CN3CC(c4ccc5c(c4C)COC5=O)NCC3C)cn2)ncc1C#N (stereo not given)
Activity [7]: Active

Cc1cc(-c2ccc(CNC[C@H](O)c3ccc4c(c3C)COC4=O)cn2)ncc1C#N
remaining at 10 min, 10 µM [1]: 46% | inhibition at 10 µM (hERG (KCNH2) [2]): 71% | remaining at 10 min, 10 µM [3]: 90%

Cc1cc(-n2cnc(CNC[C@H](O)c3ccc4c(c3C)COC4=O)c2)ncc1C#N
remaining at 10 min, 10 µM [1]: 67% | inhibition at 10 µM (hERG (KCNH2) [2]): 72% | remaining at 10 min, 10 µM [3]: 97% | IC50 [4]: 46 nM

Cc1cc(-n2cc(CN3CC[C@@H](O)[C@H](c4ccc5c(c4C)COC5=O)C3)cn2)ncc1C#N
remaining at 10 min, 10 µM [1]: 75% | remaining at 10 min, 10 µM [3]: 64% | Activity [7]: Not Active

Cc1cc(-n2cc(CN3CC(O)CC(c4ccc5c(c4C)COC5=O)C3)cn2)ncc1C#N (stereo not given)
remaining at 10 min, 10 µM [1]: 50% | remaining at 10 min, 10 µM [3]: 54% | inhibition at 3 µM (hERG (KCNH2) [8]): 76% | Activity [7]: Active

N#Cc1ccc(-c2ccc3c(c2)CCN(C[C@H](O)c2ccc4c(c2)COC4=O)C3)cc1F
IC50 [4]: 32 nM | inhibition at 1 µM (hERG (KCNH2) [6]): 97%

Cc1cc(-n2cc(CN3CC(O)C(c4ccc5c(c4C)COC5=O)C3)cn2)ncc1C#N (stereo not given)
remaining at 10 min, 10 µM [1]: 84% | remaining at 10 min, 10 µM [3]: 100% | IC50 [4]: 30 nM | inhibition at 1 µM (hERG (KCNH2) [6]): 58%

Cc1c([C@@H](O)CNCc2ccc(-c3ccc(C#N)c(F)c3)nc2)ccc2c1COC2=O
remaining at 10 min, 10 µM [1]: 51% | remaining at 10 min, 10 µM [3]: 75% | inhibition at 1 µM (hERG (KCNH2) [6]): 66%

Cc1c([C@@H](O)CN(C)Cc2ccc(-c3ccc(C#N)c(F)c3)nc2)ccc2c1COC2=O
remaining at 10 min, 10 µM [1]: 7% | remaining at 10 min, 10 µM [3]: 40% | inhibition at 1 µM (hERG (KCNH2) [6]): 68%

N#Cc1ccc(-c2ccc3c(c2)CCN(CCc2ccc4c(c2)COC4=O)C3)cc1F
remaining at 10 min, 10 µM [1]: 8% | remaining at 10 min, 10 µM [3]: 72% | IC50 [4]: 59 nM | IC50 [9]: 10 nM | IC50 [5]: 13 nM

COc1c(CNC[C@H](O)c2ccc3c(c2C)COC3=O)cnn1-c1cc(C)c(C#N)cn1
inhibition at 1 µM (hERG (KCNH2) [6]): 91%

Cc1cc(-n2cc(CN3CCN[C@H](c4ccc5c(c4C)COC5=O)C3)cn2)ncc1C#N
remaining at 10 min, 10 µM [1]: 90% | remaining at 10 min, 10 µM [3]: 96%

Cc1cc(-c2ncc(CNC[C@H](O)c3ccc4c(c3C)COC4=O)s2)ncc1C#N
remaining at 10 min, 10 µM [1]: 33% | inhibition at 10 µM (hERG (KCNH2) [2]): 72% | remaining at 10 min, 10 µM [3]: 85%

Cc1cc(-n2cc(CN3CCO[C@H](c4ccc5c(c4C)COC5=O)C3)cn2)ncc1C#N
remaining at 10 min, 10 µM [1]: 60% | remaining at 10 min, 10 µM [3]: 49% | inhibition at 1 µM (hERG (KCNH2) [6]): 26%

N#Cc1ccc(-c2ccc3c(n2)CCN(C[C@H](O)c2ccc4c(c2)COC4=O)C3)cc1F
IC50 [4]: 61 nM | IC50 [5]: 37 nM | inhibition at 1 µM (hERG (KCNH2) [6]): 80%

Cc1cc(-n2cc(CN3C[C@H](CO)N[C@H](c4ccc5c(c4C)COC5=O)C3)cn2)ncc1C#N
remaining at 10 min, 10 µM [1]: 93% | remaining at 10 min, 10 µM [3]: 76% | Activity [7]: Not Active

Cc1cc(-n2cc(CNC[C@H](O)c3ccc4c(c3C)COC4=O)cn2)ncc1C#N
remaining at 10 min, 10 µM [1]: 72% | remaining at 10 min, 10 µM [3]: 86%

Cc1cc(-n2cc(CN3CCNC(c4ccc5c(c4C)COC5=O)C3C)cn2)ncc1C#N (stereo not given)
remaining at 10 min, 10 µM [1]: 62% | remaining at 10 min, 10 µM [3]: 46% | Activity [7]: Active | inhibition at 1 µM (hERG (KCNH2) [6]): 45%

Cc1c([C@@H](O)CN2CCc3nc(-c4ccc(C#N)c(F)c4)ncc3C2)ccc2c1COC2=O
remaining at 10 min, 10 µM [1]: 96% | Ratio IC50 (Homo sapiens [10]): 40 | remaining at 10 min, 10 µM [3]: 62% | IC50 [4]: 8.8 nM | Ratio IC50 (Homo sapiens [11]): 40 | IC50 [9]: 410 nM | IC50 [5]: 9.4 nM | inhibition at 1 µM (hERG (KCNH2) [6]): 71%

Cc1cc(-n2ncc(CN3C[C@@H](c4ccc5c(c4C)COC5=O)NC(C)(C)C3)n2)ncc1C#N
remaining at 10 min, 10 µM [1]: 100% | remaining at 10 min, 10 µM [3]: 62%

N#Cc1ccc(-c2ncc3c(n2)CCN(C[C@H](O)c2ccc4c(c2)COC4=O)C3)cc1F
remaining at 10 min, 10 µM [1]: 44% | remaining at 10 min, 10 µM [3]: 73% | IC50 [4]: 74 nM | inhibition at 1 µM (hERG (KCNH2) [6]): 50%

Cc1cc(-n2ncc(CN3CCN[C@H](c4ccc5c(c4C)COC5=O)C3)n2)ncc1C#N
remaining at 10 min, 10 µM [1]: 100% | remaining at 10 min, 10 µM [3]: 100%

Cc1cc(-n2cc(CN3CC(=O)N[C@H](c4ccc5c(c4C)COC5=O)C3)cn2)ncc1C#N
remaining at 10 min, 10 µM [1]: 67% | inhibition at 10 µM (hERG (KCNH2) [2]): 42% | remaining at 10 min, 10 µM [3]: 64%
